# Results taken from paper PMC11593560 (International Journal of Molecular Sciences, 2024).
# Molecular target: T1, CAIX (Homo sapiens, UniProt Q16790)
# T1 construct: gene CA9; hCAIX expressed in Xenopus oocytes; with rMCT4 (coexpressed)
# Assay: inhibition of CAIX-mediated increase in MCT4 transport (intracellular H+ microelectrodes, Xenopus oocytes)
# Assay type: cell-based
compound,measurement,value
"O=C1NS(=O)(=O)c2cc(-n3cc(CCO[C@H]4O[C@@H](CO)[C@@H](O)[C@H](O)[C@@H]4O)nn3)ccc21 [BGal2C, Beta-Galactose-2C]",IC50,89.9 ± 5.6 nM
